Entries after “also recorded” stand apart in the source; their conditions may differ.
How the values were obtained:
[1] = system: E. coli O157:H7 strain 86-24; design: species or system piglets; settings: in vivo
[2] = in vivo

## O[C@H]1[C@H]2[C@H](O)CCCN2C[C@H]1O [swainsonine]
[1]
  progression and severity of disease / outcome at 68 h post challenge: progression of disease was less rapid and for all except one, much less severe; also recorded: Two of the swainsonine-treated pigs were recovering from the disease by 68 h post challenge
Vero cells
  lowest concentration at which a protective effect from co-incubation was observed: 0.012 μg/well
  toxic effects in swainsonine control wells: No toxic effects were observed
[2]
  adverse effects: no adverse effects
